Results published in ChEMBL document CHEMBL4619795, “Establishing the Structure-Activity Relationship of Daptomycin” (ACS Med Chem Lett, 2020).

Columns and labels:
Format in all cases: functional
Enterococcus faecalis [1] = assay: Antibacterial activity against Streptococcus faecalis assessed as bacterial growth inhibition in presence of 50 ug/ml calcium ions by CLSI protocol based broth microdilution method
Enterococcus faecalis [2] = assay: Antibacterial activity against Enterococcus faecalis ATCC 29212 assessed as bacterial growth inhibition in presence of 50 ug/ml calcium ions by CLSI protocol based broth microdilution method
Staphylococcus aureus [3] = assay: Antibacterial activity against Staphylococcus aureus ATCC 29213 assessed as bacterial growth inhibition in presence of 50 ug/ml calcium ions by CLSI protocol based broth microdilution method
Enterococcus [4] = assay: Antibacterial activity against Enterococcus 60 assessed as bacterial growth inhibition in presence of 50 ug/ml calcium ions by CLSI protocol based broth microdilution method
Staphylococcus aureus [5] = assay: Antibacterial activity against methicillin-resistant Staphylococcus aureus 14 assessed as bacterial growth inhibition in presence of 50 ug/ml calcium ions by CLSI protocol based broth microdilution method
Staphylococcus aureus [6] = assay: Antibacterial activity against methicillin-resistant Staphylococcus aureus 88 assessed as bacterial growth inhibition in presence of 50 ug/ml calcium ions by CLSI protocol based broth microdilution method
Staphylococcus aureus [7] = assay: Antibacterial activity against methicillin-resistant Staphylococcus aureus 11 assessed as bacterial growth inhibition in presence of 50 ug/ml calcium ions by CLSI protocol based broth microdilution method
Staphylococcus aureus [8] = assay: Antibacterial activity against methicillin-resistant Staphylococcus aureus 86 assessed as bacterial growth inhibition in presence of 50 ug/ml calcium ions by CLSI protocol based broth microdilution method
Enterococcus [9] = assay: Antibacterial activity against Enterococcus 6 assessed as bacterial growth inhibition in presence of 50 ug/ml calcium ions by CLSI protocol based broth microdilution method

SMILES | MIC (Enterococcus faecalis [1]) [µg/mL] | MIC (Enterococcus faecalis [2]) [µg/mL] | MIC (Staphylococcus aureus [3]) [µg/mL] | MIC (Enterococcus [4]) [µg/mL] | MIC (Staphylococcus aureus [5]) [µg/mL] | MIC (Staphylococcus aureus [6]) [µg/mL] | MIC (Staphylococcus aureus [7]) [µg/mL] | MIC (Staphylococcus aureus [8]) [µg/mL] | MIC (Enterococcus [9]) [µg/mL]
CCCCCCCCCC(=O)N[C@@H](Cc1c[nH]c2ccccc12)C(=O)N[C@@H](CC(N)=O)C(=O)N[C@@H](CC(=O)O)C(=O)N[C@@H]1C(=O)NCC(=O)N[C@@H](C)C(=O)N[C@@H](CC(=O)O)C(=O)N[C@H](C)C(=O)N[C@@H](CC(=O)O)C(=O)NCC(=O)N[C@H](CO)C(=O)N[C@@H]([C@@H](C)CC(=O)O)C(=O)N[C@@H](CC(=O)c2ccccc2N)C(=O)O[C@@H]1C | 4 | 4 | 0.5 | 1 | 0.25 | 1 | 0.5 | 0.5 | 2
C#Cc1ccc(C(=O)N[C@@H](Cc2c[nH]c3ccccc23)C(=O)N[C@@H](CC(N)=O)C(=O)N[C@@H](CC(=O)O)C(=O)N[C@@H]2C(=O)NCC(=O)N[C@@H](CCCN)C(=O)N[C@@H](CC(=O)O)C(=O)N[C@H](C)C(=O)N[C@@H](CC(=O)O)C(=O)NCC(=O)N[C@H](CO)C(=O)N[C@@H]([C@@H](C)CC(=O)O)C(=O)N[C@@H](CC(=O)c3ccccc3N)C(=O)O[C@@H]2C)cc1 | ≥ 32 | ≥ 32 | ≥ 32 | ≥ 32 | ≥ 32 | ≥ 32 | ≥ 32 | ≥ 32 | ≥ 32
CCCCCCCCCC(=O)N[C@@H](Cc1c[nH]c2ccccc12)C(=O)N[C@@H](CC(N)=O)C(=O)N[C@@H](CC(=O)O)C(=O)N[C@@H]1C(=O)NCC(=O)N[C@@H](CC(C)C)C(=O)N[C@@H](CC(=O)O)C(=O)N[C@H](C)C(=O)N[C@@H](CC(=O)O)C(=O)NCC(=O)N[C@H](CO)C(=O)N[C@@H]([C@@H](C)CC(=O)O)C(=O)N[C@@H](CC(=O)c2ccccc2N)C(=O)O[C@@H]1C | ≥ 32 | ≥ 32 | 4 | 16 | 0.5 | 2 | 1 | 4 | ≥ 32
CCCCCCCCCC(=O)N[C@@H](Cc1c[nH]c2ccccc12)C(=O)N[C@@H](CC(N)=O)C(=O)N[C@@H](CC(=O)O)C(=O)N[C@@H]1C(=O)NCC(=O)N[C@@H](CSSC[C@@H]2NC(=O)CNC(=O)[C@@H](NC(=O)[C@H](CC(=O)O)NC(=O)[C@H](CC(N)=O)NC(=O)[C@H](Cc3c[nH]c4ccccc34)NC(=O)CCCCCCCCC)[C@@H](C)OC(=O)[C@H](CC(=O)c3ccccc3N)NC(=O)[C@H]([C@@H](C)CC(=O)O)NC(=O)[C@@H](CO)NC(=O)CNC(=O)[C@H](CC(=O)O)NC(=O)[C@@H](C)NC(=O)[C@H](CC(=O)O)NC2=O)C(=O)N[C@@H](CC(=O)O)C(=O)N[C@H](C)C(=O)N[C@@H](CC(=O)O)C(=O)NCC(=O)N[C@H](CO)C(=O)N[C@@H]([C@@H](C)CC(=O)O)C(=O)N[C@@H](CC(=O)c2ccccc2N)C(=O)O[C@@H]1C | 4 | 16 | 16 | 16 | 4 | 16 | 8 | 8 | 16
C[C@H]1NC(=O)[C@H](CC(=O)O)NC(=O)[C@H](CCCN)NC(=O)CNC(=O)[C@@H](NC(=O)[C@H](CC(=O)O)NC(=O)[C@H](CC(N)=O)NC(=O)[C@H](Cc2c[nH]c3ccccc23)NC(=O)c2ccc(C#CC#Cc3ccccc3)cc2)[C@@H](C)OC(=O)[C@H](CC(=O)c2ccccc2N)NC(=O)[C@H]([C@@H](C)CC(=O)O)NC(=O)[C@@H](CO)NC(=O)CNC(=O)[C@H](CC(=O)O)NC1=O | 1 | 1 | 0.5 | 1 | 0.5 | 0.5 | 1 | 0.5 | 4
C[C@H]1NC(=O)[C@H](CC(=O)O)NC(=O)[C@H](CCCN)NC(=O)CNC(=O)[C@@H](NC(=O)[C@H](CC(=O)O)NC(=O)[C@H](CC(N)=O)NC(=O)[C@H](Cc2c[nH]c3ccccc23)NC(=O)c2ccc(C#Cc3ccccc3)cc2)[C@@H](C)OC(=O)[C@H](CC(=O)c2ccccc2N)NC(=O)[C@H]([C@@H](C)CC(=O)O)NC(=O)[C@@H](CO)NC(=O)CNC(=O)[C@H](CC(=O)O)NC1=O | 1 | 8 | 0.5 | 2 | 0.5 | 0.5 | 0.25 | 0.5 | 8
CCCCCCCCCC(=O)N[C@@H](Cc1c[nH]c2ccccc12)C(=O)N[C@@H](CC(N)=O)C(=O)N[C@@H](CC(=O)O)C(=O)N[C@@H]1C(=O)NCC(=O)N[C@@H](CCCN)C(=O)N[C@@H](CC(=O)O)C(=O)N[C@H](C)C(=O)N[C@@H](CC(=O)O)C(=O)NCC(=O)N[C@H](CO)C(=O)N[C@@H](C)C(=O)N[C@@H](CC(=O)c2ccccc2N)C(=O)O[C@@H]1C | ≥ 64 | ≥ 64 | ≥ 64 | ≥ 64 | ≥ 64 | ≥ 64 | ≥ 64 | ≥ 64 | ≥ 64
CCCCCCCCCC(=O)N[C@@H](Cc1c[nH]c2ccccc12)C(=O)N[C@@H](CC(N)=O)C(=O)N[C@@H](CC(=O)O)C(=O)N[C@@H]1C(=O)NCC(=O)N[C@@H](CC(N)=O)C(=O)N[C@@H](CC(=O)O)C(=O)N[C@H](C)C(=O)N[C@@H](CC(=O)O)C(=O)NCC(=O)N[C@H](CO)C(=O)N[C@@H]([C@@H](C)CC(=O)O)C(=O)N[C@@H](CC(=O)c2ccccc2N)C(=O)O[C@@H]1C | ≥ 32 | ≥ 32 | ≥ 32 | ≥ 32 | ≥ 32 | ≥ 32 | ≥ 32 | ≥ 32 | ≥ 32
CCCCCCCCCC(=O)N[C@@H](Cc1c[nH]c2ccccc12)C(=O)N[C@@H](CC(N)=O)C(=O)N[C@@H](CC(=O)O)C(=O)N[C@@H]1C(=O)NCC(=O)N[C@@H](CCCN)C(=O)N[C@@H](CC(=O)O)C(=O)N[C@H](C)C(=O)N[C@@H](CC(N)=O)C(=O)NCC(=O)N[C@H](CO)C(=O)N[C@@H]([C@@H](C)CC(=O)O)C(=O)N[C@@H](CC(=O)c2ccccc2N)C(=O)O[C@@H]1C | ≥ 32 | ≥ 32 | 16 | ≥ 32 | ≥ 32 | 16 | ≥ 32 | 32 | ≥ 32
CCCCCCCCCC(=O)N[C@@H](Cc1c[nH]c2ccccc12)C(=O)N[C@@H](CC(N)=O)C(=O)N[C@@H](CC(=O)O)C(=O)N[C@@H]1C(=O)NCC(=O)N[C@@H](CCCN)C(=O)N[C@@H](CC(=O)O)C(=O)N[C@H](C)C(=O)N[C@@H]([C@H](C)CC(=O)O)C(=O)NCC(=O)N[C@H](CO)C(=O)N[C@@H](CC(=O)O)C(=O)N[C@@H](CC(=O)c2ccccc2N)C(=O)O[C@@H]1C | ≥ 32 | ≥ 32 | ≥ 32 | ≥ 32 | ≥ 32 | ≥ 32 | ≥ 32 | ≥ 32 | ≥ 32
CCCCCCCCCC(=O)N[C@@H](Cc1c[nH]c2ccccc12)C(=O)N[C@@H](CC(N)=O)C(=O)N[C@@H](CC(=O)O)C(=O)N[C@@H]1C(=O)NCC(=O)N[C@@H](CCCN)C(=O)N[C@@H](CC(=O)O)C(=O)N[C@H](C)C(=O)N[C@H](CC(=O)O)C(=O)NCC(=O)N[C@H](CO)C(=O)N[C@@H]([C@@H](C)CC(=O)O)C(=O)N[C@@H](CC(=O)c2ccccc2N)C(=O)O[C@@H]1C | ≥ 32 | ≥ 32 | 16 | ≥ 32 | ≥ 32 | 16 | ≥ 32 | 16 | ≥ 32
CCCCCCCCCC(=O)N[C@@H](Cc1ccncc1)C(=O)N[C@@H](CC(N)=O)C(=O)N[C@@H](CC(=O)O)C(=O)N[C@@H]1C(=O)NCC(=O)N[C@@H](CCCN)C(=O)N[C@@H](CC(=O)O)C(=O)N[C@H](C)C(=O)N[C@@H](CC(=O)O)C(=O)NCC(=O)N[C@H](CO)C(=O)N[C@@H]([C@@H](C)CC(=O)O)C(=O)N[C@@H](CC(=O)c2ccccc2N)C(=O)O[C@@H]1C | ≥ 32 | ≥ 32 | ≥ 32 | ≥ 32 | ≥ 32 | ≥ 32 | ≥ 32 | ≥ 32 | ≥ 32
CCCCCCCCCC(=O)N[C@@H](Cc1c[nH]c2ccccc12)C(=O)N[C@@H](CC(N)=O)C(=O)N[C@@H](CC(=O)O)C(=O)N[C@@H]1C(=O)NCC(=O)N[C@@H](CCC(N)=O)C(=O)N[C@@H](CC(=O)O)C(=O)N[C@H](C)C(=O)N[C@@H](CC(=O)O)C(=O)NCC(=O)N[C@H](CO)C(=O)N[C@@H]([C@@H](C)CC(=O)O)C(=O)N[C@@H](CC(=O)c2ccccc2N)C(=O)O[C@@H]1C | ≥ 32 | ≥ 32 | 4 | ≥ 32 | ≥ 32 | 4 | ≥ 32 | 4 | ≥ 32
CCCCCCCCCC(=O)N[C@@H](Cc1c[nH]c2ccccc12)C(=O)N[C@@H](CC(N)=O)C(=O)N[C@@H](CC(=O)O)C(=O)N[C@@H]1C(=O)NCC(=O)N[C@@H](CCCN)C(=O)N[C@@H](CC(=O)O)C(=O)N[C@H](C)C(=O)N[C@@H](C)C(=O)NCC(=O)N[C@H](CO)C(=O)N[C@@H]([C@@H](C)CC(=O)O)C(=O)N[C@@H](CC(=O)c2ccccc2N)C(=O)O[C@@H]1C | ≥ 64 | ≥ 64 | ≥ 64 | ≥ 64 | ≥ 64 | ≥ 64 | ≥ 64 | ≥ 64 | ≥ 64
